# Results reported in patent publication US4471131A, “Novel silyl esters of N-phosphonomethylglycine” (Monsanto Company, priority 1983, dated 1984).
# Legend:
# Assay in all cases: post-emergence herbicidal activity, greenhouse
# Assay type in all cases: in vivo
# [1] = test system: Johnsongrass; details: Table II
# How it was run: (§1)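 After sowing in soil-filled pans and growing under greenhouse conditions, plants at two to three weeks were sprayed post-emergence with the test compound in a formulation containing approximately 0.4% emulsifier by weight. Observations of plant injury, relative to controls, followed at about two and four weeks.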
# [2] = test system: Canada Thistle; details: Table II
# How it was run: as §1
# [3] = test system: Wild Buckwheat; details: Table III, formulated in anhydrous tetrahydrofuran
# How it was run: as §1
# [4] = test system: Pennsylvania Smartweed
# How it was run: as §1
# [5] = test system: Velvetleaf
# How it was run: as §1
# [6] = test system: Soybean; details: Table III, formulated in anhydrous tetrahydrofuran
# How it was run: as §1
# [7] = test system: Hemp Sesbania; details: Table III, formulated in anhydrous tetrahydrofuran
# How it was run: as §1
# [8] = test system: Downy Brome
# How it was run: as §1
# [9] = test system: Large Crabgrass; details: Table III, formulated in anhydrous tetrahydrofuran
# How it was run: as §1
# [10] = test system: Barnyardgrass; details: Table II, 2 WAT
# How it was run: as §1
# [11] = 2 WAT, 5.6 kg/h, formulated in anhydrous tetrahydrofuran
# [12] = 2 WAT, 11.2 kg/h, formulated in anhydrous tetrahydrofuran
# [13] = 4 WAT, 11.2 kg/h, formulated in anhydrous tetrahydrofuran
# [14] = Table II, 2 WAT, 5.6 kg/h, formulated in anhydrous tetrahydrofuran
# [15] = Table II, 2 WAT, 11.2 kg/h, formulated in anhydrous tetrahydrofuran
# [16] = Table II, 4 WAT, 11.2 kg/h, formulated in anhydrous tetrahydrofuran
# [17] = Table III, 2 WAT, 1.1 kg/h, formulated in anhydrous tetrahydrofuran
# [18] = Table III, 2 WAT, 5.6 kg/h, formulated in anhydrous tetrahydrofuran
# [19] = Table III, 2 WAT, .28 kg/h, formulated in anhydrous tetrahydrofuran
# [20] = Table III, 4 WAT, 5.6 kg/h, formulated in anhydrous tetrahydrofuran
structure (smiles),measurement,setting,value
"CC(C)(C)[Si](OP(=O)(O)CNCC(=O)O)(c1ccccc1)c1ccccc1 [Ex. 5, Glycine, N-((([(1,1-Dimethylethyl)Diphenylsilyl]oxy)-Hydroxyphosphinyl)-Methyl)-,]",Plant Response Index (I),"[1]; 2 WAT, 5.6 kg/h",0 (0-24% inhibition)
same,Plant Response Index (I),[1]; [11],0 (0-24% inhibition)
same,Plant Response Index (I),"[1]; 2 WAT, 11.2 kg/h",1 (25-49% inhibition)
same,Plant Response Index (I),[1]; [12],0 (0-24% inhibition)
same,Plant Response Index (I),"[1]; 4 WAT, 5.6 kg/h",1 (25-49% inhibition)
same,Plant Response Index (I),"[1]; 4 WAT, 11.2 kg/h",2 (50-74% inhibition)
same,Plant Response Index (I),[1]; [13],0 (0-24% inhibition)
same,Plant Response Index (A),"[2]; 2 WAT, 5.6 kg/h",1 (25-49% inhibition)
same,Plant Response Index (A),[2]; [11],0 (0-24% inhibition)
same,Plant Response Index (A),"[2]; 2 WAT, 11.2 kg/h",1 (25-49% inhibition)
same,Plant Response Index (A),[2]; [12],0 (0-24% inhibition)
same,Plant Response Index (A),"[2]; 4 WAT, 5.6 kg/h",1 (25-49% inhibition)
same,Plant Response Index (A),"[2]; 4 WAT, 11.2 kg/h",1 (25-49% inhibition)
same,Plant Response Index (A),[2]; [13],1 (25-49% inhibition)
same,Plant Response Index (Q),"[3]; 2 WAT, 1.1 kg/h",0 (0-24% inhibition)
same,Plant Response Index (Q),"[3]; 2 WAT, 5.6 kg/h",1 (25-49% inhibition)
same,Plant Response Index (Q),"[3]; 2 WAT, .28 kg/h",0 (0-24% inhibition)
same,Plant Response Index (Q),"[3]; 4 WAT, 5.6 kg/h",0 (0-24% inhibition)
same,Plant Response Index (F),"[4]; Table II, 2 WAT, 5.6 kg/h",0 (0-24% inhibition)
same,Plant Response Index (F),[4]; [14],0 (0-24% inhibition)
same,Plant Response Index (F),"[4]; Table II, 2 WAT, 11.2 kg/h",2 (50-74% inhibition)
same,Plant Response Index (F),[4]; [15],0 (0-24% inhibition)
same,Plant Response Index (F),"[4]; Table II, 4 WAT, 5.6 kg/h",0 (0-24% inhibition)
same,Plant Response Index (F),"[4]; Table II, 4 WAT, 11.2 kg/h",2 (50-74% inhibition)
same,Plant Response Index (F),[4]; [16],0 (0-24% inhibition)
same,Plant Response Index (F),[4]; [17],0 (0-24% inhibition)
same,Plant Response Index (F),[4]; [18],1 (25-49% inhibition)
same,Plant Response Index (F),[4]; [19],0 (0-24% inhibition)
same,Plant Response Index (F),[4]; [20],1 (25-49% inhibition)
same,Plant Response Index (C),"[5]; Table II, 2 WAT, 5.6 kg/h",0 (0-24% inhibition)
same,Plant Response Index (C),[5]; [14],0 (0-24% inhibition)
same,Plant Response Index (C),"[5]; Table II, 2 WAT, 11.2 kg/h",1 (25-49% inhibition)
same,Plant Response Index (C),[5]; [15],0 (0-24% inhibition)
same,Plant Response Index (C),"[5]; Table II, 4 WAT, 5.6 kg/h",0 (0-24% inhibition)
same,Plant Response Index (C),"[5]; Table II, 4 WAT, 11.2 kg/h",0 (0-24% inhibition)
same,Plant Response Index (C),[5]; [16],0 (0-24% inhibition)
same,Plant Response Index (C),[5]; [17],0 (0-24% inhibition)
same,Plant Response Index (C),[5]; [18],0 (0-24% inhibition)
same,Plant Response Index (C),[5]; [19],0 (0-24% inhibition)
same,Plant Response Index (C),[5]; [20],0 (0-24% inhibition)
same,Plant Response Index (L),"[6]; 2 WAT, 1.1 kg/h",1 (25-49% inhibition)
same,Plant Response Index (L),"[6]; 2 WAT, 5.6 kg/h",1 (25-49% inhibition)
same,Plant Response Index (L),"[6]; 2 WAT, .28 kg/h",1 (25-49% inhibition)
same,Plant Response Index (L),"[6]; 4 WAT, 5.6 kg/h",0 (0-24% inhibition)
same,Plant Response Index (R),"[7]; 2 WAT, 1.1 kg/h",0 (0-24% inhibition)
same,Plant Response Index (R),"[7]; 2 WAT, 5.6 kg/h",0 (0-24% inhibition)
same,Plant Response Index (R),"[7]; 2 WAT, .28 kg/h",0 (0-24% inhibition)
same,Plant Response Index (R),"[7]; 4 WAT, 5.6 kg/h",0 (0-24% inhibition)
same,Plant Response Index (J),"[8]; Table II, 2 WAT, 5.6 kg/h",0 (0-24% inhibition)
same,Plant Response Index (J),[8]; [14],0 (0-24% inhibition)
same,Plant Response Index (J),"[8]; Table II, 2 WAT, 11.2 kg/h",0 (0-24% inhibition)
same,Plant Response Index (J),[8]; [15],0 (0-24% inhibition)
same,Plant Response Index (J),"[8]; Table II, 4 WAT, 5.6 kg/h",0 (0-24% inhibition)
same,Plant Response Index (J),"[8]; Table II, 4 WAT, 11.2 kg/h",0 (0-24% inhibition)
same,Plant Response Index (J),[8]; [16],0 (0-24% inhibition)
same,Plant Response Index (J),[8]; [17],0 (0-24% inhibition)
same,Plant Response Index (J),[8]; [18],0 (0-24% inhibition)
same,Plant Response Index (J),[8]; [19],0 (0-24% inhibition)
same,Plant Response Index (J),[8]; [20],0 (0-24% inhibition)
same,Plant Response Index (T),"[9]; 2 WAT, 1.1 kg/h",0 (0-24% inhibition)
same,Plant Response Index (T),"[9]; 2 WAT, 5.6 kg/h",1 (25-49% inhibition)
same,Plant Response Index (T),"[9]; 2 WAT, .28 kg/h",0 (0-24% inhibition)
same,Plant Response Index (T),"[9]; 4 WAT, 5.6 kg/h",1 (25-49% inhibition)
same,Plant Response Index (K),[10]; 5.6 kg/h,0 (0-24% inhibition)
same,Plant Response Index (K),"[10]; 5.6 kg/h, formulated in anhydrous tetrahydrofuran",0 (0-24% inhibition)
same,Plant Response Index (K),[10]; 11.2 kg/h,1 (25-49% inhibition)
